Entries after “also recorded” stand apart in the source; their conditions may differ.
Experiments:
[1] = intravenous, humans; cited from earlier work
[2] = tested on: blood-brain barrier (BBB) of mTBI rats; experiment: Contrast-enhanced MRI of blood-brain barrier permeability in repeated mild TBI rat model; format: in vivo, Sprague-Dawley rats
[3] = tested on: cortical microvasculature (BBB) of mTBI rats; experiment: Intravital microscopy (open window, fluorescent angiography) of cortical microvascular permeability in repeated mild TBI rat model; format: in vivo, Sprague-Dawley rats; conditions: repeated THC 0.002 mg/kg i.p.; 6-8 days after first injury; vs vehicle-injected controls
mTBI rats [4] = experiment: Electrocorticographic recording of paroxysmal slow wave events (PSWEs) in repeated mild TBI rat model; format: in vivo, Sprague-Dawley rats
mTBI rats [5] = experiment: Neurological scoring / neurological complications after repeated mild TBI; format: in vivo, Sprague-Dawley rats; conditions: daily injection of THC 0.002 mg/kg i.p.; 60% without THC

SMILES	estimated lethal dose [1] [mg/kg]	% of brain volume with pathological (damaged) BBB ([2]; repeated (daily, after each impact) THC 0.002 mg/kg i.p., CE-MRI after rmTBI, vs TBI vehicle)	% of brain volume with pathological voxels compared to non-injured controls ([2]; repeated THC 0.002 mg/kg i.p., CE-MRI, FIG. 1D)	effect on trauma-induced BBB breakdown ([2]; repeated THC, data from both CE-MRI and intravital microscopy)	cortical microvascular (BBB) permeability [3]	number of PSWEs (mTBI rats [4]; repeated THC 0.002 mg/kg i.p., ECoG 3-4 weeks following injury)	number of PSWEs (mTBI rats [4]; single THC dose (THC1) 0.002 mg/kg i.p. after first impact, vs controls, FIG. 3B)	risk for neurological complications (mTBI rats [5]) [%]
CCCCCc1cc(O)c2c(c1)OC(C)(C)[C@@H]1CCC(C)=C[C@@H]21 [dronabinol, (−)-trans-[…]9-tetrahydrocannabinol]	30	–	–	–	–	–	–	–
CCCCCc1cc(O)c2c(c1)OC(C)(C)[C@@H]1CCC(C)=C[C@@H]21 [THC, Δ9-tetrahydrocannabinol]	–	Moderate decrease	not different compared to controls	mild protective and therapeutic effect	lower; also recorded: reduced	mild reduction; also recorded: lower occurrence	significant increase	35
